{"source": "paper PMC11405271", "about": "“Atypical cellular responses mediated by intracellular constitutive active TrkB (NTRK2) kinase domains and a solely intracellular NTRK2-fusion oncogene” (Cancer Gene Therapy, 2024)", "target": "T1, TrkB-wt (Mus musculus, UniProt P15209)", "T1 construct": "gene Ntrk2; full-length receptor with kinase domain, pcDNA3, transiently overexpressed in HEK293; 130 kDa mature and 90 kDa underglycosylated", "T1 sequence (P15209 32-821)": "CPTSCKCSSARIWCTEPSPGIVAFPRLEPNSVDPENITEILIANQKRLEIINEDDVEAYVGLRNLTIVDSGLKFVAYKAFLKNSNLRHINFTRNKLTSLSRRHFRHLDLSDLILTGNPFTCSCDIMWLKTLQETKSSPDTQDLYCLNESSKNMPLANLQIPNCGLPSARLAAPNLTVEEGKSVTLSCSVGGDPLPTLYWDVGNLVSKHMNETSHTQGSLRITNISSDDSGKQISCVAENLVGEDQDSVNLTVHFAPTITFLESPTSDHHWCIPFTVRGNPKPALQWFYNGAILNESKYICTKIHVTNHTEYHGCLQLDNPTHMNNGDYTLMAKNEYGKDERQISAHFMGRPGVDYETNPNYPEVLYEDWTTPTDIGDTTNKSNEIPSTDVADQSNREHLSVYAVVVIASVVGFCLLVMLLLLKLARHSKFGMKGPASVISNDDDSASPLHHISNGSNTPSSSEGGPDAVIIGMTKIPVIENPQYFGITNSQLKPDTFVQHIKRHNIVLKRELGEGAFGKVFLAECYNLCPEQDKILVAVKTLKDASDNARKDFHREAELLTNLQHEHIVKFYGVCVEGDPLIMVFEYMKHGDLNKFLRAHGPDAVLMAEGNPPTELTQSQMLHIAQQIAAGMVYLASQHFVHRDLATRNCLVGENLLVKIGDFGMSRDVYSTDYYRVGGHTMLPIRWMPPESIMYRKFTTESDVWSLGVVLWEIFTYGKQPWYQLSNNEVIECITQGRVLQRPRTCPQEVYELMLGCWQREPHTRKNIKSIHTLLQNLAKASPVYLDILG", "experiment": "Western blot and immunofluorescence of pTrk-kin, transfected HEK293", "assay_type": "cell-based", "settings": "no neurotrophin, constitutive kinase activity; concentrations only in figure"}
{"smiles": "CN1CCN(c2ccc(C(=O)Nc3n[nH]c4ccc(Cc5cc(F)cc(F)c5)cc34)c(NC3CCOCC3)c2)CC1", "note": "[Entrectinib]", "values": [{"measurement": "Western blot and immunofluorescence of pTrk-kin, transfected HEK293", "result": "TrkB self-activity is reduced upon inhibitor treatment"}]}
{"smiles": "O=C(Nc1cnn2ccc(N3CCC[C@@H]3c3cc(F)ccc3F)nc12)N1CC[C@H](O)C1", "note": "[LOXO-101]", "values": [{"measurement": "Western blot and immunofluorescence of pTrk-kin, transfected HEK293", "result": "TrkB self-activity is reduced upon inhibitor treatment"}]}
